# Assay: Crystallization (polymorph) studies of compound A free base: fast/slow evaporation, slurry at 25° C., anti-solvent addition, vapor diffusion; solids analysed by XRPD
# Type: physicochemical
# Conditions: for FE: fast evaporative crystallization; for Results from Slow Evaporation Crystallization Experiments: slow evaporation at room temperature; for Slurry: slurry at 25° C., three days
# Experimental: (§1) I. Fast Evaporative Crystallization Method (FE): compound A (ca. 30 mg) was dissolved in minimum quantity the stated solvent while heating at 80° C. The resulted solutions were filtered using a 0.45 μm PTFE syringe filter and the filtrate was collected. The filtrate was evaporated using a rotavap.
# as §1, with “II. Slow” for “I. Fast”, “(SE):” for “(FE):”, “covered with perforated aluminum foil and left to evaporate at ambient temperature.” for “evaporated using a rotavap.”
# III. Slurry Crystallization at 25° C. using Form I of compound A: compound A (ca. 100 mg) was suspended in minimum quantity the stated solvent. The resulted slurries were allowed to stir at 25° C. for three days.
# IV. Anti-Solvent Addition Crystallization: compound A (ca. 50 mg) was dissolved in solubilizing solvent. To that solution 200 μL anti-solvent was added slowly. These iterations were continued until the precipitation observed or maximum solvent quantity of ~25 mL. Many solvents were used as the solubilizing solvent in these experiments. Selection of anti-solvent for each solubilizing solvent is based on the miscibility between them.
# V. Vapor Diffusion Crystallization: compound A (ca. 30 mg) was dissolved in solubilizing solvent and kept in a small (8 mL) vial. These vials were kept in a larger vial (40 mL) that had 15 mL anti-solvents and closed the vial cap to allow vapor diffusion between them. Many solvents were used as the solubilizing solvent in these experiments. Selection of anti-solvent for each solubilizing solvent is based on the miscibility between them. All the experiments were kept in undisturbed laboratory bench and observed periodically to see if any crystals were grown during that time.
# Compound A was slurred in respective solvents and stirred at 25° C. for three days. A total of five unique XRPD patterns were identified and designated as Form I, Form II, Form III, Form IV, and Form V.
# Compound A was dissolved in a suitable solvent while heating up to 80° C. and the resultant solutions were allowed to slowly evaporate at room temperature (25° C.).
# Compound A was dissolved in suitable solvents. To those solutions anti-solvents were added to obtain the solids. The solvent and anti-solvent selection was based on the solubility of compound A and also miscibility between them.
# [1] = solvent 14DOX, anti-solvent DEE
# [2] = solvent 14DOX, anti-solvent T-Butyl Methyl Ether
# [3] = solvent CHCl3, anti-solvent 4-Me-2Pentanone
# [4] = solvent CHCl3, anti-solvent DEE
# [5] = solvent CHCl3, anti-solvent T-Butyl Methyl Ether
# [6] = solvent DCM, anti-solvent 4-Me-2Pentanone
# [7] = solvent DCM, anti-solvent T-Butyl Methyl Ether
# [8] = solvent DMSO, anti-solvent Water
# [9] = solvent EtOAc, anti-solvent 4-Me-2Pentanone
# [10] = solvent EtOAc, anti-solvent DEE
# [11] = solvent EtOAc, anti-solvent T-Butyl Methyl Ether
# [12] = solvent EtOH, anti-solvent 4-Me-2Pentanone
# [13] = solvent EtOH, anti-solvent T-Butyl Methyl Ether
# [14] = solvent EtOH, anti-solvent Water
# [15] = solvent IPA, anti-solvent 4-Me-2Pentanone
# [16] = solvent IPA, anti-solvent T-Butyl Methyl Ether
# [17] = solvent MeOH, anti-solvent 4-Me-2Pentanone
# [18] = solvent MeOH, anti-solvent T-Butyl Methyl Ether
# [19] = solvent MeOH, anti-solvent Water
# [20] = solvent THF, anti-solvent 4-Me-2Pentanone
# [21] = solvent THF, anti-solvent T-Butyl Methyl Ether
# [22] = solvent THF, anti-solvent Water
structure (smiles),measurement,setting,value
"C[C@@H](Oc1ccc2[nH]nc(-c3ccc(N4CC5(C4)CN(S(C)(=O)=O)C5)nc3)c2c1)c1c(Cl)cncc1Cl [Compound A, 5-[(1R)-1-(3,5-dichloro-4-pyridyl)ethoxy]-3-[6-(2-methylsulfonyl-2,6-diazaspiro[3.3]heptan-6-yl)-3-pyridyl]-1H-indazole]",FE,solvent 4-Me 2-Pentanone,Not Dissolved
same,FE,solvent ACN,Form II
same,FE,solvent Acetone,Form II
same,FE,solvent CHCl3,Clear film
same,FE,solvent DEE,Not Dissolved
same,FE,solvent EtOAc,Form VIII
same,FE,solvent EtOH,Form IV
same,FE,solvent H2O,Not Dissolved
same,FE,solvent IPA,Form IV
same,FE,solvent MeOH,Form IV
same,FE,solvent THF,Clear film
same,FE,solvent tert-butyl methyl ether,Not Dissolved
same,Results from Slow Evaporation Crystallization Experiments,"solvent 1,2-Propdiol",Form IV
same,Results from Slow Evaporation Crystallization Experiments,solvent 4-Me 2-Pentanone,Form I
same,Results from Slow Evaporation Crystallization Experiments,solvent ACN,Form IV
same,Results from Slow Evaporation Crystallization Experiments,solvent Acetone,Form IV and 5
same,Results from Slow Evaporation Crystallization Experiments,solvent DCM,Form IV
same,Results from Slow Evaporation Crystallization Experiments,solvent DEE,Form I
same,Results from Slow Evaporation Crystallization Experiments,solvent DMF,Form IV
same,Results from Slow Evaporation Crystallization Experiments,solvent DMSO,Form IV
same,Results from Slow Evaporation Crystallization Experiments,solvent EtOAc,Form IV
same,Results from Slow Evaporation Crystallization Experiments,solvent EtOH,Form IV
same,Results from Slow Evaporation Crystallization Experiments,solvent Eth. Gly,Form IV
same,Results from Slow Evaporation Crystallization Experiments,solvent H2O,Form I
same,Results from Slow Evaporation Crystallization Experiments,solvent IPA,Form IV
same,Results from Slow Evaporation Crystallization Experiments,solvent MeOH,Form II
same,Results from Slow Evaporation Crystallization Experiments,solvent T-ButylMethEther,Form I
same,Results from Slow Evaporation Crystallization Experiments,solvent THF,Form IV
same,Slurry,"solvent 1,2-Propdiol",Form I
same,Slurry,solvent 4-Me 2-Pentanone,Form I
same,Slurry,solvent 14DOX,Form VI
same,Slurry,solvent ACN,Form III
same,Slurry,solvent Acetone,Form II
same,Slurry,solvent CHCl3,Form III
same,Slurry,solvent DCM,Form II
same,Slurry,solvent DEE,Form I
same,Slurry,solvent DMF,Form VII
same,Slurry,solvent EtOAc,Form I
same,Slurry,solvent EtOH,Form I
same,Slurry,solvent Eth. Gly,Form I
same,Slurry,solvent H2O,Form I
same,Slurry,solvent IPA,Form I
same,Slurry,solvent MeOH,Form II
same,Slurry,solvent T-ButylMethEther,Form I
same,Slurry,solvent THF,Form III
same,Results of Anti-Solvent Addition Studies,"solvent 14DOX, anti-solvent 4-Me-2Pentanone",No XRPD -
same,Results of Anti-Solvent Addition Studies,[1],Form II
same,Results of Vapor Diffusion Studies,[1],Form VIII
same,Results of Anti-Solvent Addition Studies,[2],Form I
same,Results of Vapor Diffusion Studies,[2],Form VIII
same,Results of Anti-Solvent Addition Studies,"solvent 14DOX, anti-solvent Water",Form V
same,Results of Anti-Solvent Addition Studies,"solvent ACN, anti-solvent 4-Me-2Pentanone",No XRPD -
same,Results of Anti-Solvent Addition Studies,"solvent ACN, anti-solvent DEE",No XRPD -
same,Results of Anti-Solvent Addition Studies,"solvent ACN, anti-solvent T-Butyl Methyl Ether",Form IV
same,Results of Anti-Solvent Addition Studies,"solvent ACN, anti-solvent Water",Form V +
same,Results of Anti-Solvent Addition Studies,"solvent Acetone, anti-solvent 4-Me-2Pentanone",No XRPD -
same,Results of Anti-Solvent Addition Studies,"solvent Acetone, anti-solvent DEE",Form II
same,Results of Anti-Solvent Addition Studies,"solvent Acetone, anti-solvent T-Butyl Methyl Ether",Form I
same,Results of Anti-Solvent Addition Studies,"solvent Acetone, anti-solvent Water",Form V
same,Results of Anti-Solvent Addition Studies,[3],Form II
same,Results of Vapor Diffusion Studies,[3],Form I +
same,Results of Anti-Solvent Addition Studies,[4],Form I
same,Results of Vapor Diffusion Studies,[4],Form VIII
same,Results of Anti-Solvent Addition Studies,[5],Form I
same,Results of Vapor Diffusion Studies,[5],Form I
same,Results of Anti-Solvent Addition Studies,[6],Form IV
same,Results of Vapor Diffusion Studies,[6],Form I +
same,Results of Anti-Solvent Addition Studies,"solvent DCM, anti-solvent DEE",Form II
same,Results of Vapor Diffusion Studies,"solvent DCM, anti-solvent DEE",Form IV
same,Results of Anti-Solvent Addition Studies,[7],Form I
same,Results of Vapor Diffusion Studies,[7],Form I +
same,Results of Anti-Solvent Addition Studies,"solvent DMF, anti-solvent 4-Me-2Pentanone",No XRPD -
same,Results of Anti-Solvent Addition Studies,"solvent DMF, anti-solvent DEE",Form VIII
same,Results of Anti-Solvent Addition Studies,"solvent DMF, anti-solvent T-Butyl Methyl Ether",Form II
same,Results of Anti-Solvent Addition Studies,"solvent DMF, anti-solvent Water",Form II
same,Results of Anti-Solvent Addition Studies,"solvent DMSO, anti-solvent T-Butyl Methyl Ether",Form IV
same,Results of Anti-Solvent Addition Studies,[8],Amorphous
same,Results of Vapor Diffusion Studies,[8],Form IV +
same,Results of Anti-Solvent Addition Studies,[9],Form IV +
same,Results of Vapor Diffusion Studies,[9],Form IV
same,Results of Anti-Solvent Addition Studies,[10],Form IV
same,Results of Vapor Diffusion Studies,[10],Form IV
same,Results of Anti-Solvent Addition Studies,[11],Form I
same,Results of Vapor Diffusion Studies,[11],Form IV
same,Results of Anti-Solvent Addition Studies,[12],No XRPD -
same,Results of Vapor Diffusion Studies,[12],No XRPD -
same,Results of Anti-Solvent Addition Studies,"solvent EtOH, anti-solvent DEE",Form IV
same,Results of Vapor Diffusion Studies,"solvent EtOH, anti-solvent DEE",Form IV
same,Results of Anti-Solvent Addition Studies,[13],Form IV
same,Results of Vapor Diffusion Studies,[13],Form IV
same,Results of Anti-Solvent Addition Studies,[14],Form IV +
same,Results of Vapor Diffusion Studies,[14],Form IV +
same,Results of Anti-Solvent Addition Studies,[15],No XRPD -
same,Results of Vapor Diffusion Studies,[15],Form IV
same,Results of Anti-Solvent Addition Studies,"solvent IPA, anti-solvent DEE",Form IV
same,Results of Vapor Diffusion Studies,"solvent IPA, anti-solvent DEE",Form IV
same,Results of Anti-Solvent Addition Studies,[16],Form IV
same,Results of Vapor Diffusion Studies,[16],Form IV +
same,Results of Anti-Solvent Addition Studies,"solvent IPA, anti-solvent Water",Form IV +
same,Results of Anti-Solvent Addition Studies,[17],No XRPD -
same,Results of Vapor Diffusion Studies,[17],No XRPD -
same,Results of Anti-Solvent Addition Studies,"solvent MeOH, anti-solvent DEE",Form II
same,Results of Anti-Solvent Addition Studies,[18],Form II
same,Results of Vapor Diffusion Studies,[18],Form II
same,Results of Anti-Solvent Addition Studies,[19],Form II
same,Results of Vapor Diffusion Studies,[19],Form II
same,Results of Anti-Solvent Addition Studies,[20],Form I
same,Results of Vapor Diffusion Studies,[20],Form II
same,Results of Anti-Solvent Addition Studies,"solvent THF, anti-solvent DEE",Form II
same,Results of Vapor Diffusion Studies,"solvent THF, anti-solvent DEE",Form IV
same,Results of Anti-Solvent Addition Studies,[21],Form I
same,Results of Vapor Diffusion Studies,[21],Form VIII
same,Results of Anti-Solvent Addition Studies,[22],Form V
same,Results of Vapor Diffusion Studies,[22],Form V

# From patent publication US20260285871A1, “Polymorphic Compounds and Uses Thereof” (TYRA BIOSCIENCES, INC., priority 2022, published 2026)
